Like-named read-outs stand apart in the source and are kept apart here.
Assays:
[1] = test system: T.b. brucei (strain 427) bloodstream form parasites; experiment: Trypanosoma brucei assay, dose–response (this study); type: cell-based; details: for IC50: Trypanosoma brucei, read-out: T. brucei brucei IC50 (μM) This study
HeLa cells = experiment: HeLa cell assay (cytotoxicity); type: cell-based; details: Homo sapiens
Description: HeLa cells were cultured in DMEM medium supplemented with 10% fetal bovine serum and antibiotics (penicillin/streptomycin/amphotericin B) at 37 °C in a 5% CO2 incubator. On the day prior to compound addition, cells were plated in 96-well plates at 2 × 10^4 cells per well. Compounds were added to the cells in 3-fold serial dilutions and incubation at 37 °C in a 5% CO2 incubator continued for 48 hours. Twenty μl resazurin reagent (0.5 mM resazurin in phosphate-buffered saline) was added to each well and, after a 2-hour incubation, fluorescence (Exc560/Em590) was measured in a plate reader. Percentage cell viability in drug-treated wells was calculated from the fluorescent readings obtained relative to those in wells containing control, untreated cells. Plots of % cell viability vs. log[compound] were used to determine IC50 values by non-linear regression analysis using GraphPad Prism.

T.b. brucei [2] = test system: T.b. brucei; set-up: method as in https://www.pathogenbox.org/; details: ref https://www.pathogenbox.org/, cited from earlier work; for IC50: Table 1, kinetoplastid category, read-out: T. brucei brucei IC50 (μM) Pathogen Box
[3] = test system: T.b. brucei (strain 427) bloodstream form parasites; experiment: T.b. brucei single concentration screen (10 μM); details: for viability at 10 µM: Trypanosoma brucei, read-out: T.b.brucei % viability (10 µM); for T.b.brucei % viability (10 µM): single concentration 10 µM, % parasite viability relative to non-treated parasites
T.b. brucei [4] = test system: T.b. brucei; set-up: method as in PMID 28674055; details: cited from earlier work; for IC50: Table 1, kinetoplastid category of the Pathogen Box, read-out: T. brucei brucei IC50 (μM) Duffy et al.
[5] = test system: M. tuberculosis CTP synthase, PyrG; set-up: method as in PMID 28475832; details: cited from earlier work
[6] = Table 1, kinetoplastid category, 48 hours at 37 °C, resazurin
[7] = Table 1, HeLa cells, 48 hours, resazurin, read-out: HeLa IC50
[8] = HeLa, 48 h, read-out: HeLa IC50 (μM)

Structure (SMILES)	IC50 [1, 6] [µM]	IC50 (HeLa cells; [7]) [µM]	IC50 (T.b. brucei [2]) [µM]	viability at 10 µM [3] [%]	further results
O=C(Nc1ccc2c(c1)B(O)OC2)c1ccccc1C(F)(F)F [Compound 3, OB1OCc2ccc(NC(=O)c3ccccc3C(F)(F)F)cc12]	0.14	> 25	0.15	0	
CCc1ccccc1-n1c(C)cn2c3c(=O)n(C(C(=O)OC)C(C)C)c(=O)n(C)c3nc12 (stereo not drawn) [Compound 4, CCc1ccccc1n2c(C)cn3c4C(=O)N(C(C(C)C)C(=O)OC)C(=O)N(C)c4nc23]	0.03	> 25	< 0.13	0	
Cc1ncc(-c2ccnc(Nc3ccc(S(C)(=O)=O)cc3)n2)n1C(C)C [Compound 6, CC(C)n1c(C)ncc1c2ccnc(Nc3ccc(cc3)S(=O)(=O)C)n2]	0.084	1.2	0.26	2.2	
CNC(=O)c1nn(C)c2c1C(C)(C)Cc1cnc(Nc3ccc(N4CCN(C)CC4)cc3)nc1-2 [Compound 7, CNC(=O)c1nn(C)c2c3nc(Nc4ccc(cc4)N5CCN(C)CC5)ncc3CC(C)(C)c12]	0.048	4	< 0.13	0.62	
O=C(NCc1nnc2n1CCCCC2)c1ccc(-c2ccc(F)cc2)o1 [Compound 8, Fc1ccc(cc1)c2oc(cc2)C(=O)NCc3nnc4CCCCCn34]	0.11	> 25	0.1	1.3	
NCCN(C(=O)c1ccc(Cl)cc1Cl)c1ccc(OCc2ccc(Cl)cc2)cc1 [Compound 9, NCCN(C(=O)c1ccc(Cl)cc1Cl)c2ccc(OCc3ccc(Cl)cc3)cc2]	0.49	7.5	< 0.13	4	
Cc1ccc(S(=O)(=O)Nc2ccc(CN3CCN(C(=O)c4cccc(C#N)c4)CC3)cc2)cc1 [Compound 11, O=C(N1CCN(CC2=CC=C(NS(=O)(C3=CC=C(C)C=C3)=O)C=C2)CC1)C4=CC(C#N)=CC=C4]	0.12	> 25	0.14	6.6	
COc1ccc(C(=N)N)cc1-c1cn(-c2ccc(C(=N)N)cc2)nn1 [Compound 12, COc1ccc(cc1c2cn(nn2)c3ccc(cc3)C(=N)N)C(=N)N]	0.54	> 25	0.25	9	
O=C(NCCc1ccn(-c2ccccc2)n1)C1CCCCC1 [Compound 13, O=C(NCCc1ccn(n1)c2ccccc2)C3CCCCC3]	0.21	> 25	0.15	2	
CS(=O)(=O)c1ccccc1C(=O)N(Cc1ccccc1)c1ccccc1 [Compound 14, CS(=O)(=O)c1ccccc1C(=O)N(Cc2ccccc2)c3ccccc3]	1.2	> 25	0.56	18	
COc1ccc(C2=NN(C3CCCCCC3)C(=O)[C@@H]3CC=CC[C@H]23)cc1OCCCCOc1ccc(-c2nnn[nH]2)cc1 [Compound 15, COC1=C(OCCCCOC2=CC=C(C3=NNN=N3)C=C2)C=C(C([C@@H]4[C@H]5CC=CC4)=NN(C6CCCCCC6)C5=O)C=C1]			0.02	6	IC50 ([1]; 48 h): 0.12 µM; IC50 (HeLa cells; [8]): > 25 µM
N=C(N)Nc1ccc(-c2ccc(-c3ccc(N=C(N)N)c(Cl)c3)o2)cc1Cl [Compound 16, NC(=N)Nc1ccc(cc1Cl)c2oc(cc2)c3ccc(N=C(N)N)c(Cl)c3]	0.65	17	0.6	1.2	
CCC(=O)Nc1ccccc1C(=O)Nc1ccccn1 [Compound 17, CCC(=O)Nc1ccccc1C(=O)Nc2ccccn2]	0.38	> 25	2.46	7	
COc1ccc(S(=O)(=O)Nc2ccc(CN3CCN(C(=O)c4cccc(C#N)c4)CC3)cc2)cc1 [Compound 18, O=C(N1CCN(CC2=CC=C(NS(=O)(C3=CC=C(OC)C=C3)=O)C=C2)CC1)C4=CC(C#N)=CC=C4]	0.44	> 25	0.5	6.5	
CCCCN(CCCC)c1c(C#N)cc(S(=O)(=O)Nc2ccccc2)cc1C#N [Compound 19, CCCCN(CCCC)c1c(cc(cc1C#N)S(=O)(=O)Nc2ccccc2)C#N]	1.3	> 25	0.26	6	
Cc1noc(C)c1COc1cccc(C(=O)N=c2[nH]cccc2C)c1 [Compound 20, Cc1onc(C)c1COc2cccc(c2)C(=O)Nc3ncccc3C]	0.62	> 25	2.07	7	
CO[C@@H](C(=O)N1Cc2[nH]nc(NC(=O)c3ccc(N4CCN(C)CC4)cc3)c2C1)c1ccccc1 [Compound 21, CO[C@@H](C(=O)N1Cc2[nH]nc(NC(=O)c3ccc(cc3)N4CCN(C)CC4)c2C1)c5ccccc5]	0.3	> 25	1.02	4.5	
CNC(=O)C1Cc2ccccc2N1C(=O)Cc1ccc(F)cc1 (stereo not drawn) [Compound 22, CNC(=O)C1Cc2ccccc2N1C(=O)Cc3ccc(F)cc3]	0.71	> 25	0.49	7	
c1ccc(Oc2ccc(-c3cc(C4CCOCC4)[nH]n3)cc2)cc1 [Compound 23, C1CC(CCO1)c2cc(n[nH]2)c3ccc(Oc4ccccc4)cc3]			7.58	82	IC50 (T.b. brucei [4]): ≥ 1 µM; T.b.brucei % viability (10 µM) [3]: did not sufficiently reduce cell viability
Cc1nn2c(=O)c3c([nH]c2c1-c1ccc(Cl)cc1)CCCC3 [Compound 24, Cc1nn2C(=O)C3=C(CCCC3)Nc2c1c4ccc(Cl)cc4]				19	IC50 (T.b. brucei [4]): ≥ 1 µM; T.b. brucei activity in words, Pathogen Box (T.b. brucei [2]): sub-micromolar range; T.b.brucei % viability (10 µM) [3]: did not sufficiently reduce cell viability
COc1ccc(C2=NN(C3CCCCCC3)C(=O)C2(C)C)cc1OCCCCOc1ccc(-c2nn[nH]n2)cc1 [Compound 25, COC1=C(OCCCCOC2=CC=C(C3=NNN=N3)C=C2)C=C(C4=NN(C5CCCCCC5)C(C4(C)C)=O)C=C1]	1.7	> 25	0.79	8.5	
Cc1nn2c(O)c3c(nc2c1-c1ccc(F)cc1)CCCC3 [Compound 28, Cc1nn2c(O)c3CCCCc3nc2c1c4ccc(F)cc4]	4.6	> 25	1.94	12	
CC1=Nc2ccc(Cl)cc2C(O)(c2ccc(C)cc2)N1CCN1CCCCC1 (stereo not drawn) [Compound 29, CC1=Nc2ccc(Cl)cc2C(O)(N1CCN3CCCCC3)c4ccc(C)cc4]	0.98	15	0.98	2	
c1ccc(Oc2ccc(-c3cc(N4CCNCC4)[nH]n3)cc2)cc1 [Compound 30, C1CN(CCN1)c2cc(n[nH]2)c3ccc(Oc4ccccc4)cc3]	2.3	11	0.99	0.3	
CN1CCN(S(=O)(=O)c2ccc(-c3ccc4c(Nc5ncc(Cl)cn5)ccnc4c3)cc2)CC1 [Compound 31, CN1CCN(CC1)S(=O)(=O)c2ccc(cc2)c3ccc4c(Nc5ncc(Cl)cn5)ccnc4c3]	2.2	> 25	3.78	6.4	
CCOC(=O)c1noc(N)c1-c1ccccc1 [Compound 34, CCOC(=O)c1noc(N)c1c2ccccc2]	0.41	> 25	1.22	12	T.b. brucei inhibition in words, this study [1]: mid-nanomolar inhibitor; T.b. brucei activity in words, Pathogen Box (T.b. brucei [2]): low micromolar range
O=C(COc1cccc(F)c1)Nc1nc(-c2ccccn2)cs1 [Compound 43, Fc1cccc(OCC(=O)Nc2nc(cs2)c3ccccn3)c1]				3	IC50 (HeLa cells; [8]): > 25 µM; Inhibition of M. tuberculosis CTP synthase, PyrG [5]: moderate inhibitors
O=C(Nc1ccccc1)c1ccc(-c2cc3ccncc3cc2OC2CCNCC2)s1 [Compound 51, O=C(Nc1ccccc1)c2ccc(s2)c3cc4ccncc4cc3OC5CCNCC5]				1	T.b. brucei inhibition in words, this study [1]: selectively inhibited T.b. brucei, albeit moderately; IC50 ([1]; Table 2, remaining Pathogen Box, 48 hours at 37 °C, resazurin): 1 µM; Selectivity index ([1]; calculated as IC50(HeLa)/IC50(T.bb)): 7.5; IC50 (HeLa cells; Table 2, HeLa cells, 48 hours, resazurin, read-out: HeLa IC50): 7.5 µM; T.b. brucei inhibition in words, Duffy et al. (T.b. brucei [4]): moderate inhibition
O=C(Nc1ccc(C(F)(F)F)c(C(F)(F)F)c1)c1cc(Cl)ccc1O [Compound 66, Oc1ccc(Cl)cc1C(=O)Nc2ccc(c(c2)C(F)(F)F)C(F)(F)F]				42	T.b. brucei inhibition in words, Duffy et al. (T.b. brucei [4]): sub-micromolar inhibitor

Source: PMC6301270 (MedChemComm, 2018)
